Measured values reported in US20220144823A1, “PYRAZOLOPYRIDINE DERIVATIVES AS INHIBITORS OF PASK” (Galapagos NV, priority 2019, published 2022).
pIC50: −log10 of the molar value.

Key:
[1] = molecular target: T1, human PASK (Homo sapiens, UniProt Q96RG2); experiment: 33P radioactive kinase assay; assay type: biochemical; settings: 33P radioactive PASK kinase assay, 10 μM ATP, ZIPtide 1 μM
T1 construct: purchased ThermoFisher Scientific PR7013A
Experimental: The principle of the ^33P radioactive kinase assay consists in measuring the incorporated ^33P into the ZIPtide peptide substrate when phosphorylated by human PASK using [^33P]-[…]-ATP and ATP, which correlates with kinase activity.
The test compounds are prepared as a serial dilution of 10 point dose responses with 1/5 dilution steps in 100% DMSO starting from 0.2 or 2 mM highest concentration, diluted 1/20 in water and 5 μL is transferred to the assay plates (Greiner, Cat #651201).
(§1) 1% DMSO and 10 μM staurosporine final concentrations are used respectively as negative and positive controls.
11 μL of enzyme-substrate mixture is added on the assay plates. The reactions are started by adding 9 μL ATP mixture, consisting of non-labeled and ^33P-labeled ATP, on the assay plates.
The reactions are stopped by adding 25 μL phosphoric acid (150 mM) to the reactions.
The completely terminated kinase reactions are transferred using a harvester on pre-wetted UniFilter-96 plates (UniFilter-96 GF/B, PerkinElmer Inc., Cat #6005177).
After harvesting the kinase reactions, the filter plates are washed 6 times with phosphoric acid (75 mM). The back of the UniFilter-96 plates are sealed and 40 μL MicroScint-20 (PerkinElmer Inc., Cat #6013621) is added to each well. The top of each plate is sealed with TopSeal-A (PerkinElmer Inc., Cat #6050185). Read-out is performed with a TopCount instrument (PerkinElmer Inc.).
Raw data are generated following the read-out performed on the TopCount, used to calculate percentage inhibition (PIN) values and plotted to generate dose response curves and derive the average half maximal inhibitory concentrations (IC50) reported in Table VI.

[2] = molecular target: T1, human PASK; experiment: ADP-Glo kinase assay; assay type: biochemical; settings: ADPGlo PASK kinase assay, 25 μM ATP, ZIPtide 25 μM
Experimental: The ADP-Glo™ kinase assay is a luminescent technology assay which measures the ADP formed from a kinase reaction. In this specific study, the kinase reactions consisted of the phosphorylation of the ZIPtide peptide substrate by human recombinant PASK. In a second step the kinase reaction is terminated and all the remaining ATP is depleted. In a final step the ADP is converted into ATP and this newly synthesized ATP is measured by using a luciferase/luciferin reaction. The generated light is measured using an Envision plate reader, wherein the luminescent signal obtained positively correlates with the kinase activity.
The test compounds are prepared as a serial dilution of 10 point dose responses with 1/5 dilution steps in 100% DMSO starting from 2 mM highest concentration, diluted 1/20 in water and 1 μL is transferred to the assay plates (PerkinElmer Inc., Cat #6007290).
as §1
2 μL enzyme-substrate mixture is added to the assay plates.
The reaction is started by adding 2 μL diluted ATP on the assay plates immediately after addition of the enzyme-substrate mixture to the compound. Plates are centrifuged for a few seconds at 1000 rpm and gently shaken for 2 min followed by an incubation at RT for 120 min.
The reactions are stopped and the unconsumed ATP is depleted by adding 5 μL ADP-Glo Reagent (Promega, Cat #V912B) to the reaction. The plates are centrifuged for a few seconds at 1000 rpm and incubated at RT for 40 min (ATP depletion).
The ADP is converted to ATP and luciferase and luciferin is introduced to detect ATP by adding 10 μL Kinase Detection Reagent (Promega, Cat #V913B+V914B) to the reaction. The plates are centrifuged for a few seconds at 1000 rpm and incubated at RT for 30 min (ADP detection).
Luminescence is measured on an Envision plate reader (PerkinElmer Inc.).
Raw data are generated following the read-out performed on the Envision plate reader, used to calculate percentage inhibition (PIN) values and plotted to generate dose response curves and derive the average half maximal inhibitory concentrations (IC50) reported in Table VIII.

T1 sequence (Q96RG2 whole entry): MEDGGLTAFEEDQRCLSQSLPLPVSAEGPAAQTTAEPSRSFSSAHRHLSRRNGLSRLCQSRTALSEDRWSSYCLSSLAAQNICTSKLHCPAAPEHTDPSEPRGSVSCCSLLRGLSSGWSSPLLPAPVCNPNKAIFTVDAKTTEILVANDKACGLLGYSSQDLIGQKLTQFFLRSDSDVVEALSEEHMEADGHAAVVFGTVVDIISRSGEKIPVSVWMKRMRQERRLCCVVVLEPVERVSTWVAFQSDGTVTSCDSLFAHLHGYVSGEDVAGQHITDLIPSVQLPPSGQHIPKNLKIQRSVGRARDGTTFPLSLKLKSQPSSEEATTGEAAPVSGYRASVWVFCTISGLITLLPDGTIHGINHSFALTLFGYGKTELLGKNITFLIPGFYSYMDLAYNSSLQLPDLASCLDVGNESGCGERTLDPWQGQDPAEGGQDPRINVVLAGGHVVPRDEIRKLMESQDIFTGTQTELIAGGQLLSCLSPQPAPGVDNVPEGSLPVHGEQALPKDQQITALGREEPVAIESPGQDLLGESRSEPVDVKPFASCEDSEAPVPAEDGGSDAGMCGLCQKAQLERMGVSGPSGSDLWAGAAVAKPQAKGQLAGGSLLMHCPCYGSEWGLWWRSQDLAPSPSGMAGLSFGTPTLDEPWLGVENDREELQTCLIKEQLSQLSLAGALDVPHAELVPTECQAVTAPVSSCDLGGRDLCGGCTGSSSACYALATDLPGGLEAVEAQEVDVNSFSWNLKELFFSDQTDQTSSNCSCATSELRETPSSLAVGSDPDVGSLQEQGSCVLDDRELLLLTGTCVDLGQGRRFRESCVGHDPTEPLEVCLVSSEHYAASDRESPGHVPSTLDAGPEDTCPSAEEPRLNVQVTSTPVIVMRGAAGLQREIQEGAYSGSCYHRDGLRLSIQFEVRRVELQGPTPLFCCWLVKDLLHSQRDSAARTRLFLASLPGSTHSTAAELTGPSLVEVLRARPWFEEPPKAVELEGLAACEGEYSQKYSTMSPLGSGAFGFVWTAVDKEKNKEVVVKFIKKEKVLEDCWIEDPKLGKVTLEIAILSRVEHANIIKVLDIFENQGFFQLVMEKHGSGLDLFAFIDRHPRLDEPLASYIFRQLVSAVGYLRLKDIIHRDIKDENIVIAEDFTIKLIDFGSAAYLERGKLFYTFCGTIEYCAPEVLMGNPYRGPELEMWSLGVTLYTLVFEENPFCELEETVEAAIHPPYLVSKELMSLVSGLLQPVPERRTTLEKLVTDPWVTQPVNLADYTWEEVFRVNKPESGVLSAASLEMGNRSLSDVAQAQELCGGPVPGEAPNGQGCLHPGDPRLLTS

| pIC50 [1] | pIC50 [2] | SMILES |
| --- | --- | --- |
| 8.00 to 11.00 | – | CCc1oc(-c2ccn3ncc(-c4c(C)nn(C)c4C)c3c2)cc1C(=O)O [Cpd 26, 2-ethyl-5-[3-(1,3,5-trimethylpyrazol-4-yl)pyrazolo[1,5-a]pyridin-5-yl]furan-3-carboxylic acid] |
| 8.00 to 11.00 | – | Cc1nn(C)c(C)c1-c1cnn2ccc(-c3cc(C(=O)O)c(CC(C)C)o3)cc12 [Cpd 27, 2-isobutyl-5-[3-(1,3,5-trimethylpyrazol-4-yl)pyrazolo[1,5-a]pyridin-5-yl]furan-3-carboxylic acid] |
| 8.00 to 11.00 | 8.00 to 11.00 | CCn1nc(C)c(-c2cnn3ccc(-c4ncc(C(=O)O)s4)cc23)c1C [Cpd 29, 2-[3-(1-ethyl-3,5-dimethyl-pyrazol-4-yl)pyrazolo[1,5-a]pyridin-5-yl]thiazole-5-carboxylic acid] |
| 8.00 to 11.00 | 8.00 to 11.00 | Cc1nn(C(C)C)c(C)c1-c1cnn2ccc(-c3ncc(C(=O)O)s3)cc12 [Cpd 30, 2-[3-(1-isopropyl-3,5-dimethyl-pyrazol-4-yl)pyrazolo[1,5-a]pyridin-5-yl]thiazole-5-carboxylic acid] |
| 7.00 to 8.00 | – | Cc1noc(C)c1-c1cnn2ccc(-c3ccc(C(=O)O)o3)cc12 [Cpd 31, 5-[3-(3,5-dimethylisoxazol-4-yl)pyrazolo[1,5-a]pyridin-5-yl]furan-2-carboxylic acid] |
| 7.00 to 8.00 | – | Cc1c(-c2cnn3ccc(-c4nc(C(=O)O)co4)cc23)cnn1C [Cpd 33, 2-[3-(1,5-dimethylpyrazol-4-yl)pyrazolo[1,5-a]pyridin-5-yl]oxazole-4-carboxylic acid] |
| 7.00 to 8.00 | 7.00 to 8.00 | Cc1noc(C)c1-c1cnn2ccc(-c3nc(C(=O)O)c(C)o3)cc12 [Cpd 34, 2-[3-(3,5-dimethylisoxazol-4-yl)pyrazolo[1,5-a]pyridin-5-yl]-5-methyl-oxazole-4-carboxylic acid] |
| 6.30 to 7.00 | 6.30 to 7.00 | Cc1noc(C)c1-c1cnn2ccc(-c3nc(C(F)(F)F)c(C(=O)O)o3)cc12 [Cpd 36, 2-[3-(3,5-dimethylisoxazol-4-yl)pyrazolo[1,5-a]pyridin-5-yl]-4-(trifluoromethyl) oxazole-5-carboxylic acid] |
| 8.00 to 11.00 | – | Cc1noc(C)c1-c1cnn2ccc(-c3cc(C(=O)O)c(C4=CCOCC4)o3)cc12 [Cpd 41, 2-(3,6-dihydro-2H-pyran-4-yl)-5-[3-(3,5-dimethyl-isoxazol-4-yl)pyrazolo[1,5-a]pyridin-5-yl]furan-3-carboxylic acid] |
| 7.00 to 8.00 | – | Cc1noc(C)c1-c1cnn2ccc(-c3nc(C(F)F)c(C(=O)O)s3)cc12 [Cpd 45, 4-(difluoromethyl)-2-[3-(3,5-dimethylisoxazol-4-yl)pyrazolo[1,5-a]pyridin-5-yl]thiazole-5-carboxylic acid] |
| 8.00 to 11.00 | – | Cc1nn(C(C)C)c(C)c1-c1cnn2ccc(-c3nc(C(F)F)c(C(=O)O)s3)cc12 [Cpd 46, 4-(difluoromethyl)-2-[3-(1-isopropyl-3,5-dimethyl-pyrazol-4-yl)pyrazolo[1,5-a]pyridin-5-yl]thiazole-5-carboxylic acid] |

The remaining lines, values behind:

| SMILES | pIC50 [1] | pIC50 [2] |
| --- | --- | --- |
| Cn1cc(-c2cnn3ccc(-c4cc(C(=O)O)c(C(=O)Nc5ccccc5)o4)cc23)cn1 [Cpd 1, 5-[3-(1-methylpyrazol-4-yl)pyrazolo[1,5-a]pyridin-5-yl]-2-(phenylcarbamoyl) furan-3-carboxylic acid] | 8.00 to 11.00 | – |
| Cn1cc(-c2cnn3ccc(-c4cc(C(=O)O)co4)cc23)cn1 [Cpd 3, 5-[3-(1-methylpyrazol-4-yl)pyrazolo[1,5-a]pyridin-5-yl]furan-3-carboxylic acid] | 7.00 to 8.00 | – |
| Cc1noc(C)c1-c1cnn2ccc(-c3cc(C(=O)O)co3)cc12 [Cpd 4, 5-[3-(3,5-dimethylisoxazol-4-yl)pyrazolo[1,5-a]pyridin-5-yl]furan-3-carboxylic acid] | 8.00 to 11.00 | 8.00 to 11.00 |
| COC(=O)c1coc(-c2ccn3ncc(-c4c(C)nn(C)c4C)c3c2)c1 [Cpd 5, methyl 5-[3-(1,3,5-trimethylpyrazol-4-yl)pyrazolo[1,5-a]pyridin-5-yl]furan-3-carboxylate] | 7.00 to 8.00 | – |
| CCOC(=O)c1coc(-c2ccn3ncc(-c4c(C)nn(C)c4C)c3c2)c1 [Cpd 6, ethyl 5-[3-(1,3,5-trimethylpyrazol-4-yl)pyrazolo[1,5-a]pyridin-5-yl]furan-3-carboxylate] | 7.00 to 8.00 | – |
| Cc1nn(C)c(C)c1-c1cnn2ccc(-c3cc(C(=O)OCC(=O)N(C)C)co3)cc12 [Cpd 7, [2-(dimethylamino)-2-oxo-ethyl] 5-[3-(1,3,5-trimethylpyrazol-4-yl)pyrazolo[1,5-a]pyridin-5-yl]furan-3-carboxylate] | 7.00 to 8.00 | – |
| COc1nc(-c2ccn3ncc(-c4c(C)nn(C)c4C)c3c2)sc1C(N)=O [Cpd 11, 4-methoxy-2-[3-(1,3,5-trimethylpyrazol-4-yl)pyrazolo[1,5-a]pyridin-5-yl]thiazole-5-carboxamide] | 8.00 to 11.00 | – |
| Cc1nn(C)cc1-c1cnn2ccc(-c3cc(C(=O)O)co3)cc12 [Cpd 14, 5-[3-(1,3-dimethylpyrazol-4-yl)pyrazolo[1,5-a]pyridin-5-yl]furan-3-carboxylic acid] | 8.00 to 11.00 | 8.00 to 11.00 |
| Cc1nn(C)c(C)c1-c1cnn2ccc(-c3cc(C(=O)O)c(C4CC4)o3)cc12 [Cpd 15, 2-cyclopropyl-5-[3-(1,3,5-trimethylpyrazol-4-yl)pyrazolo[1,5-a]pyridin-5-yl]furan-3-carboxylic acid] | 8.00 to 11.00 | 8.00 to 11.00 |
| Cc1nn(C)c(C)c1-c1cnn2ccc(-c3cc(C(=O)O)c(C)o3)cc12 [Cpd 16, 2-methyl-5-[3-(1,3,5-trimethylpyrazol-4-yl)pyrazolo[1,5-a]pyridin-5-yl]furan-3-carboxylic acid] | 8.00 to 11.00 | – |
| CCOc1nc(-c2ccn3ncc(-c4c(C)noc4C)c3c2)sc1C(=O)O [Cpd 17, 2-[3-(3,5-dimethylisoxazol-4-yl)pyrazolo[1,5-a]pyridin-5-yl]-4-ethoxy-thiazole-5-carboxylic acid] | 8.00 to 11.00 | 8.00 to 11.00 |
| Cc1noc(C)c1-c1cnn2ccc(-c3cc(C(=O)O)c(C)o3)cc12 [Cpd 19, 5-[3-(3,5-dimethylisoxazol-4-yl)pyrazolo[1,5-a]pyridin-5-yl]-2-methyl-furan-3-carboxylic acid] | 8.00 to 11.00 | – |
| Cc1noc(C)c1-c1cnn2ccc(-c3nc(C(=O)O)co3)cc12 [Cpd 20, 2-[3-(3,5-dimethylisoxazol-4-yl)pyrazolo[1,5-a]pyridin-5-yl]oxazole-4-carboxylic acid] | 7.00 to 8.00 | 6.30 to 7.00 |
| Cc1nn(C)c(C)c1-c1cnn2ccc(-c3cc(C(=O)NS(C)(=O)=O)co3)cc12 [Cpd 21, N-methylsulfonyl-5-[3-(1,3,5-trimethylpyrazol-4-yl)pyrazolo[1,5-a]pyridin-5-yl]furan-3-carboxamide] | 7.00 to 8.00 | – |
| Cc1nn(C)c(C)c1-c1cnn2ccc(-c3cc(C(=O)NS(=O)(=O)C4CC4)co3)cc12 [Cpd 22, N-cyclopropylsulfonyl-5-[3-(1,3,5-trimethylpyrazol-4-yl)pyrazolo[1,5-a]pyridin-5-yl]furan-3-carboxamide] | 7.00 to 8.00 | – |
| Cc1noc(C)c1-c1cnn2ccc(-c3ncc(C(=O)O)o3)cc12 [Cpd 24, 2-[3-(3,5-dimethylisoxazol-4-yl)pyrazolo[1,5-a]pyridin-5-yl]oxazole-5-carboxylic acid] | 8.00 to 11.00 | – |
| Cc1noc(C)c1-c1cnn2ccc(-c3ncc(C(=O)O)s3)cc12 [Cpd 25, 2-[3-(3,5-dimethylisoxazol-4-yl)pyrazolo[1,5-a]pyridin-5-yl]thiazole-5-carboxylic acid] | 8.00 to 11.00 | – |
